Source: US7815900B1, “Use of C3-C5 monosaccharides to protect keratinous fibers” (L'Oréal S.A., priority 2000, dated 2010)

Key:
[1] = Cuticle loss estimated by UV transmittance of suspension; conditions: relaxed ethnic hair, greater transmittance = less cuticle loss
Method: (§1) Kinky hair was relaxed using 2.5% sodium hydroxide (20 min at room temperature). The hair was thoroughly rinsed with water, and a treatment solution was applied for 10 min at 45° C. Each of the following treatment solutions were tested: a) 1% D-xylose, b) 5% D-xylose, and c) deionized water-control treatment.
The cuticle loss was estimated as follows. The relaxed/treated hair (0.5 g) was immersed in 2.5 mL deionized water for 15 min at 45° C. The hair was removed and UV transmittance of the remaining cloudy suspension was determined. The greater the transmittance, the less material is suspended, and therefore, the less damage to the hair.

[2] = Tensile strength (work to break) of relaxed hair after treatment; conditions: relaxed ethnic hair, 10 min at 45° C.
Method: as §1

[3] = Protein loss from hair in water; conditions: bleached hair treated 5 times (1% solutions; Xylo-Biose Syrup 1.5%), then 1 h at 45° C. in deionized water
Method: XyloBiose Syrup is a raw material that contains about 15 wt % of xylobiose (dimer) and about 12 wt % of xylose. Xylo-Oligo 95P is a raw material containing about 22 wt % of xylobiose. Bleached hair was rinsed and blot-dried with a paper-towel. The treatment solution was then applied to the hair for 10 min at 45° C., and the hair was blow-dried. The procedure was repeated 5 times. Each of the following solutions was tested: • 1% D-Xylose • 1% Xylo-Oligo 95P • 1.5% XyloBiose Syrup • deionized water-control treatment
Following blow drying, a hair swatch (0.5 g) was immersed in 25 mL of deionized water for 1 h at 45° C. and the water was analyzed for the protein content. Id.

In the case of `O=C[C@H](O)[C@@H](O)[C@H](O)CO` [D-Xylose], the “Transmittance, at 600 nm” value ([1]; 1% solution) is reported as 0.9545, the “Transmittance, at 600 nm” value ([1]; 5% solution) is reported as 0.9339 and the “Work to Break” value ([2]; 1% solution) is reported as 749 +/− 151 J/m^2. For the same molecule, the “Work to Break” value ([2]; 5% solution) was 1,200 +/− 222 J/m^2 and the Protein loss [3] was 200.9 +/− 36.5 microgram/g hair.
